From patent US8445505B2 (IRM LLC, priority 2008, dated 2013) come the findings set out here.

This assay has as its target IGF1R Ba/F3 (Homo sapiens, UniProt P08069). Description: Ba/F3 Cell Viability Inhibition Assay (Tel-TK transformed Ba/F3 lines). The assay is classed as cell-based, murine. Details: the printed alternative. The conditions noted are these: Tel-TK (IGF1R) transformed Ba/F3 cells, 48 hours incubation, cell viability (Britelite luminescence). The source says: Ba/F3 is a murine IL-3-dependent pro-B lymphoma cell line. Parental Ba/F3 cells are used to generate a panel of sublines whose proliferation and survival is rendered IL-3-independent by stable transduction with individual tyrosine kinases activated by fusion with the amino-terminal portion of TEL (amino acid 1-375) or BCR. In order to generate Ba/F3 cell lines transformed by Tel-Tyrosine Kinase (TK) fusions, parental Ba/F3 cells are infected with a retrovirus harboring each TEL-fusion kinase and subjected to puromycin selection and IL-3 withdrawal to obtain IL-3-independent, transformed Ba/F3 cells.
Each transformed Ba/F3 cells are cultured in RPMI-1640 media (Gibco Cat #11875093, Carlsbad, Calif.) supplemented with 10% FBS (Hyclone Cat #SV30014.03, Logan, Utah), 4.5 g/L glucose (Sigma #G5400, St.Louis, Mo.), 1.5 g/L sodium bicarbonate (Biowhittaker #17-613E, Walkersville, Md.) and Pen/Strep (Gibco #10378-016, Carlsbad, Calif.). Cells are splitted twice weekly.
The potency of test compounds against various Tel-TK transformed Ba/F3 lines is determined as follows. Exponentially growing BaF3 Tel-TK cells are diluted in fresh medium to 75,000 cells/mL and seeded into 384-well plates (3750 cells/well) at 50 μL/well using a gill liquid dispenser (BioTek, Winooski, Vt., USA). Duplicate plates are run for each cell line. Test and control compounds are serially diluted with DMSO and arrayed in a polypropylene 384-well plate. 50 nL of compound is transferred into the assay plates using a pin-transfer device, and the plates are incubated at 37° C. (5% CO2) for 48 hours. 25 μL Britelite (Perkin Elmer) is added and luminescence is quantified using Analyst GT (Molecular Devices). Custom curve-fitting software is used to produce a logistic fit of percent cell viability as a function of the logarithm of inhibitor concentration. The IC50 is interpolated as the concentration of compound needed to reduce cell viability to 50% of a DMSO control. Parental Ba/F3 cells that are maintained and cultured in presence of IL-3 (1 ng/ml in final) are diluted in fresh medium containing IL-3 (1 ng/ml in final) to 75,000 cells/mL following the same procedure as described above.

Chain of IGF1R Ba/F3 (P08069 999-1274 limits assumed): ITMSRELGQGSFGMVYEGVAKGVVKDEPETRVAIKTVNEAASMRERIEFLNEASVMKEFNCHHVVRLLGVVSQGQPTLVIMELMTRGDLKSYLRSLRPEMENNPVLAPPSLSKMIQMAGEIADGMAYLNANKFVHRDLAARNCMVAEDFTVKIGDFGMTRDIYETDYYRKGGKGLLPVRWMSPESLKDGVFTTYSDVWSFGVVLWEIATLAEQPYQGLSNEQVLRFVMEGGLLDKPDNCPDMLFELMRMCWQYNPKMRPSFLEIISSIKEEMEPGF

A word on the IC50: it is the concentration at which inhibition is half-maximal. Low readings indicate higher potency, high ones lower potency. With `CCN(CC)[C@H]1CC[C@H](c2cc(F)c(Nc3ncc(Cl)c(Nc4cc(C)[nH]n4)n3)cc2C)CC1` [Compound 57, 5-chloro-N2-(4-((trans)-4-(diethylamino)cyclohexyl)-2-fluoro-5-methylphenyl)-N4-(5-methyl-1H-pyrazol-3-yl)pyrimidine-2,4-diamine], it took 31 nM to reach half-maximal inhibition (IC50). To `Cc1cc(Nc2nc(Nc3cc(C)c([C@H]4CC[C@@H](N5CCNCC5)CC4)cc3F)ncc2Cl)n[nH]1` [Compound 58, 5-chloro-N2-(2-fluoro-5-methyl-4-((cis)-4-(piperazin-1-yl)cyclohexyl)phenyl)-N4-(5-methyl-1H-pyrazol-3-yl)pyrimidine-2,4-diamine] belongs 17 nM.

Compound `Cc1cc(Nc2nc(Nc3cc(C)c([C@H]4CC[C@H](N5CCNCC5)CC4)cc3F)ncc2Cl)n[nH]1` [Compound 59, 5-chloro-N2-(2-fluoro-5-methyl-4-((trans)-4-(piperazin-1-yl)cyclohexyl)phenyl)-N4-(5-methyl-1H-pyrazol-3-yl)pyrimidine-2,4-diamine] showed an IC50 of 39 nM.

In the case of `Cc1cc(Nc2nc(Nc3cc(C)c([C@H]4CC[C@@H](N5CCCCC5)CC4)cc3C)ncc2C(F)(F)F)n[nH]1` [Compound 60, N2-(2,5-dimethyl-4-((cis)-4-(piperidin-1-yl)cyclohexyl)phenyl)-N4-(5-methyl-1H-pyrazol-3-yl)-5-(trifluoromethyl)pyrimidine-2,4-diamine], the IC50 was determined as 4 nM.

In turn, `Cc1cc(Nc2nc(Nc3cc(C)c([C@H]4CC[C@H](N5CCCCC5)CC4)cc3C)ncc2C(F)(F)F)n[nH]1` [Compound 61, N2-(2,5-dimethyl-4-((trans)-4-(piperidin-1-yl)cyclohexyl)phenyl)-N4-(5-methyl-1H-pyrazol-3-yl)-5-(trifluoromethyl)pyrimidine-2,4-diamine] gave an IC50 of 3 nM. To `Cc1cc(Nc2nc(Nc3cc(C)c([C@H]4CC[C@@H](N5CCCCC5)CC4)cc3F)ncc2C(F)(F)F)n[nH]1` [Compound 62, N^2-(2-fluoro-5-methyl-4-(cis-4-(piperidin-1-yl)cyclohexyl)phenyl)-N^4-(5-methyl-1H-pyrazol-3-yl)-5-(trifluoromethyl)pyrimidine-2,4-diamine] belongs 18 nM.

For `Cc1cc(Nc2nc(Nc3cc(C)c([C@H]4CC[C@H](N5CCCCC5)CC4)cc3F)ncc2C(F)(F)F)n[nH]1` [Compound 63, N^2-(2-fluoro-5-methyl-4-(trans-4-(piperidin-1-yl)cyclohexyl)phenyl)-N^4-(5-methyl-1H-pyrazol-3-yl)-5-(trifluoromethyl)pyrimidine-2,4-diamine], the IC50 was found to be 16 nM. Under `Cc1cc(Nc2nc(Nc3cc(C)c([C@H]4CC[C@@H](N5CCOCC5)CC4)cc3F)ncc2C(F)(F)F)n[nH]1` [Compound 64, N2-(2-fluoro-5-methyl-4-((cis)-4-morpholinocyclohexyl)phenyl)-N4-(5-methyl-1H-pyrazol-3-yl)-5-(trifluoromethyl)pyrimidine-2,4-diamine] stands 50 nM; under `Cc1cc(Nc2nc(Nc3cc(C)c([C@H]4CC[C@H](N5CCOCC5)CC4)cc3F)ncc2C(F)(F)F)n[nH]1` [Compound 65, N2-(2-fluoro-5-methyl-4-((trans)-4-morpholinocyclohexyl)phenyl)-N4-(5-methyl-1H-pyrazol-3-yl)-5-(trifluoromethyl)pyrimidine-2,4-diamine], 32 nM. To `Cc1cc(Nc2nc(Nc3cc(C)c([C@H]4CC[C@@H](N5CCOCC5)CC4)cc3C)ncc2C(F)(F)F)n[nH]1` [Compound 66, N^2-(2,5-dimethyl-4-(cis-4-morpholinocyclohexyl)phenyl)-N^4-(5-methyl-1H-pyrazol-3-yl)-5-(trifluoromethyl)pyrimidine-2,4-diamine] belongs 14 nM. To `Cc1cc(Nc2nc(Nc3cc(C)c([C@H]4CC[C@H](N5CCOCC5)CC4)cc3C)ncc2C(F)(F)F)n[nH]1` [Compound 67, N^2-(2,5-dimethyl-4-(trans-4-morpholinocyclohexyl)phenyl)-N^4-(5-methyl-1H-pyrazol-3-yl)-5-(trifluoromethyl)pyrimidine-2,4-diamine] belongs 9 nM; to `Cc1cc(Nc2nc(Nc3cc(C)c([C@H]4CC[C@@H](N5C[C@H](O)[C@@H](O)C5)CC4)cc3F)ncc2C(F)(F)F)n[nH]1` [Compound 68, (3S,4S)-1-((cis)-4-(5-fluoro-2-methyl-4-(4-(5-methyl-1H-pyrazol-3-ylamino)-5-(trifluoromethyl)pyrimidin-2-ylamino)phenyl)cyclohexyl)pyrrolidine-3,4-diol], 120 nM; to `Cc1cc(Nc2nc(Nc3cc(C)c([C@H]4CC[C@H](N5C[C@H](O)[C@@H](O)C5)CC4)cc3F)ncc2C(F)(F)F)n[nH]1` [Compound 69, (3S,4S)-1-((trans)-4-(5-fluoro-2-methyl-4-(4-(5-methyl-1H-pyrazol-3-ylamino)-5-(trifluoromethyl)pyrimidin-2-ylamino)phenyl)cyclohexyl)pyrrolidine-3,4-diol], 302 nM. `Cc1cc(Nc2nc(Nc3cc(C)c([C@H]4CC[C@H](N5C[C@@H](O)[C@H](O)C5)CC4)cc3F)ncc2C(F)(F)F)n[nH]1` [Compound 70, (3R,4R)-1-((trans)-4-(5-fluoro-2-methyl-4-(4-(5-methyl-1H-pyrazol-3-ylamino)-5-(trifluoromethyl)pyrimidin-2-ylamino)phenyl)cyclohexyl)pyrrolidine-3,4-diol]: the IC50 is 248 nM.

For `Cc1cc(Nc2nc(Nc3cc(C)c([C@H]4CC[C@@H](N5C[C@@H](O)[C@H](O)C5)CC4)cc3F)ncc2C(F)(F)F)n[nH]1` [Compound 71, (3R,4R)-1-((cis)-4-(5-fluoro-2-methyl-4-(4-(5-methyl-1H-pyrazol-3-ylamino)-5-(trifluoromethyl)pyrimidin-2-ylamino)phenyl)cyclohexyl)pyrrolidine-3,4-diol], the IC50 is 109 nM. Under `Cc1cc(Nc2nc(Nc3cc(C)c([C@H]4CC[C@H](O)CC4)cc3F)ncc2Cl)n[nH]1` [Compound 72, Trans-4-(4-(5-chloro-4-(5-methyl-1H-pyrazol-3-ylamino)pyrimidin-2-ylamino)-5-fluoro-2-methylphenyl)cyclohexanol] stands 99 nM; under `Cc1cc(Nc2nc(Nc3cc(C)c([C@H]4CC[C@@H](O)CC4)cc3F)ncc2Cl)n[nH]1` [Compound 73, Cis-4-(4-(5-chloro-4-(5-methyl-1H-pyrazol-3-ylamino)pyrimidin-2-ylamino)-5-fluoro-2-methylphenyl)cyclohexanol], 32 nM. Under `Cc1cc(Nc2nc(Nc3cc(C)c(-c4ccc5c(c4)CCNC5)cc3C)ncc2Cl)n[nH]1` [Compound 74, 5-chloro-N2-(2,5-dimethyl-4-(1,2,3,4-tetrahydroisoquinolin-6-yl)phenyl)-N4-(5-methyl-1H-pyrazol-3-yl)pyrimidine-2,4-diamine] stands 87 nM.

On to `Cc1cc(Nc2nc(Nc3cc(C)c(-c4ccc5c(c4)CCN(C)C5)cc3C)ncc2Cl)n[nH]1` [Compound 75, 5-chloro-N2-(2,5-dimethyl-4-(2-methyl-1,2,3,4-tetrahydroisoquinolin-6-yl)phenyl)-N4-(5-methyl-1H-pyrazol-3-yl)pyrimidine-2,4-diamine], for which the IC50 was determined as 54 nM. Under `Cc1cc(Nc2nc(Nc3ccc(C4CCN(CC(N)=O)CC4)c(C)n3)ncc2Cl)n[nH]1` [Compound 76, 2-(4-(6-(5-chloro-4-(5-methyl-1H-pyrazol-3-ylamino)pyrimidin-2-ylamino)-2-methylpyridin-3-yl)piperidin-1-yl)acetamide] stands 1790 nM.

In turn, `Cc1cc(Nc2nc(Nc3ccc(C4CCN(CC(N)=O)CC4)c4ccncc34)ncc2Cl)n[nH]1` [Compound 77, 2-(4-(8-(5-chloro-4-(5-methyl-1H-pyrazol-3-ylamino)pyrimidin-2-ylamino)isoquinolin-5-yl)piperidin-1-yl)acetamide] came in with an IC50 of 3300 nM. Under `Cc1cc(Nc2nc(Nc3ccc(C4CCN(CCS(C)(=O)=O)CC4)c4cccnc34)ncc2Cl)n[nH]1` [Compound 78, 5-chloro-N4-(5-methyl-1H-pyrazol-3-yl)-N2-(5-(1-(2-(methylsulfonyl)ethyl)piperidin-4-yl)quinolin-8-yl)pyrimidine-2,4-diamine] stands 412 nM. For the compound `Cc1cc(Nc2nc(Nc3cc4c(cc3F)CN(C3CCNCC3)C4=O)ncc2Cl)n[nH]1` [Compound 79, 6-(5-chloro-4-(5-methyl-1H-pyrazol-3-ylamino)pyrimidin-2-ylamino)-5-fluoro-2-(piperidin-4-yl)isoindolin-1-one], the IC50 was 6400 nM.
